Results taken from ChEMBL document CHEMBL5518235, “Identification of Novel Series of Potent and Selective Relaxin Family Peptide Receptor 1 (RXFP1) Agonists” (J Med Chem, 2024).
≈ marks a conversion by molar mass, not a printed value. Blank lines part the entries; values can stand above or below the molecule they belong to. Calls of active or inactive are those of the source. The rule behind the calls is not given here.

Columns and labels:
[1] = Oral bioavailability in Han Wistar rat at 2.0 micromol/kg by LC-MS/MS analysis; assay type: ADME, organism-based; conditions: in vivo, 2 µmol/kg
[2] = Metabolic stability in human liver microsomes assessed as unbound intrinsic clearance at 1 uM incubated for 30 mins in presence of NADPH by LC-MS/MS analysis; assay type: ADME, Microsome; conditions: 0.5 h
[3] = Volume of distribution at steady state in Han Wistar rat at 0.99 micromol/kg, iv by LC-MS/MS analysis; assay type: ADME, organism-based; conditions: in vivo, dose 0.99 µmol/kg, read-out: Vdss
[4] = Metabolic stability in Han Wistar rat hepatocytes assessed as intrinsic clearance measured per 10^6 cells at 1 uM after 120 mins by LC-MS/MS analysis; assay type: ADME, cell-based, Hepatocyte; conditions: read-out: CLH
[5] = Clearance in Han Wistar rat at 0.99 micromol/kg, iv by LC-MS/MS analysis; assay type: ADME, organism-based; conditions: in vivo, dose 0.99 µmol/kg
[6] = biological target: T1, Relaxin receptor 1 (Rattus norvegicus) (UniProt Q6R6I6); assay: Agonist activity at rat RXFP1 expressed in T-Rex-CHO-K1 cells assessed as stimulation of cAMP production at 40 uM incubated for 45 mins by HTRF assay; assay type: functional, cell-based
T1 sequence (whole entry): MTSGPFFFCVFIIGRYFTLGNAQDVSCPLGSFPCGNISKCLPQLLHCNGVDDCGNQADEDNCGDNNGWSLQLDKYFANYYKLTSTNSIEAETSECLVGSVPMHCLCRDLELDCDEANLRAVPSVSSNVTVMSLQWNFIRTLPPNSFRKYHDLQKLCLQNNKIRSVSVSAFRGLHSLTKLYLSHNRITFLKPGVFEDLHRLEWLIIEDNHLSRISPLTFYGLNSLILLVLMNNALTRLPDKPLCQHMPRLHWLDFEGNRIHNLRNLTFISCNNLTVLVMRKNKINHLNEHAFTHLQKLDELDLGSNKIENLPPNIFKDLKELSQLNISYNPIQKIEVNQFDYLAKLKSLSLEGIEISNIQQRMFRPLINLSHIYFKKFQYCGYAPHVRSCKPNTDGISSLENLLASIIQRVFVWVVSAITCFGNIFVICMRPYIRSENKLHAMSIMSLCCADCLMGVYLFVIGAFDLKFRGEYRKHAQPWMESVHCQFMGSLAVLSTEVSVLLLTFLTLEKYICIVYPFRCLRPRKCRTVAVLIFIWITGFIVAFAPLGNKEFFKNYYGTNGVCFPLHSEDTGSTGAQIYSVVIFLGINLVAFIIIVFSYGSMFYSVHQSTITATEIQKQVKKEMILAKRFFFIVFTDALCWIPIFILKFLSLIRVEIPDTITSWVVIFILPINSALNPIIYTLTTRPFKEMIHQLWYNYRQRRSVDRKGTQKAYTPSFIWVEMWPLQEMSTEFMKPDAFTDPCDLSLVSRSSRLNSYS

[7] = Metabolic stability in rat hepatocytes assessed as unbound fraction at 1 uM incubated for 4 hrs by equilibrium dialysis based LC-MS/MS analysis; assay type: ADME, cell-based, Hepatocyte
[8] = Lipophilicity, logD of the compound in 1-octanol and phosphate buffer at pH 7.4 incubated for 3 hrs by shake flask method based LC/MS/MS analysis; assay type: physicochemical; conditions: 1-octanol/phosphate buffer, pH 7.4
[9] = Metabolic stability in human liver microsomes assessed as intrinsic clearance at 1 uM incubated for 30 mins in presence of NADPH by LC-MS/MS analysis; assay type: ADME, Microsome; conditions: liver microsomes, read-out: CLH
[10] = Metabolic stability in Han Wistar rat hepatocytes assessed as unbound intrinsic clearance measured […] at 1 uM after 120 mins by LC-MS/MS analysis; assay type: ADME, cell-based, Hepatocyte; conditions: 2 h
[11] = Metabolic stability in human liver microsomes assessed as unbound fraction at 1 uM incubated for 4 hrs by equilibrium dialysis based LC-MS/MS analysis; assay type: ADME, Microsome
[12] = Half-life in Han Wistar rat at 0.99 micromol/kg, iv by LC-MS/MS analysis; assay type: ADME, organism-based; conditions: in vivo, dose 0.99 µmol/kg
[13] = Metabolic stability in cryopreserved human hepatocytes assessed as unbound intrinsic clearance measured per 10^6 cells at 1 uM measured after 120 mins by LC-MS/MS analysis; assay type: ADME, cell-based, Hepatocyte; conditions: 2 h
[14] = Kinetic solubility of compound at pH 7.4 incubated for 24 hrs by shake-flask method based LC-MS/MS analysis; assay type: physicochemical; conditions: buffer, read-out: Kinetic_solubility
[15] = Protein binding in rat plasma assessed as free fraction at 5 uM incubated for 18 hrs by equilibrium dialysis based LC-MS/MS analysis; assay type: ADME, cell-free
[16] = Metabolic stability in cryopreserved human hepatocytes assessed as intrinsic clearance measured per 10^6 cells at 1 uM after 120 mins by LC-MS/MS analysis; assay type: ADME, cell-based, Hepatocyte; conditions: cryopreserved hepatocytes, read-out: CLH
[17] = biological target: T2, Relaxin receptor 1 (Homo sapiens) (UniProt Q9HBX9); assay: Agonist activity at human RXFP1 expressed in T-Rex-CHO-K1 cells assessed as stimulation of cAMP production by measuring maximal efficacy at 50 uM incubated for 45 mins by HTRF assay relative to control; assay type: functional, cell-based; conditions: filed as agonist
T2 sequence (whole entry): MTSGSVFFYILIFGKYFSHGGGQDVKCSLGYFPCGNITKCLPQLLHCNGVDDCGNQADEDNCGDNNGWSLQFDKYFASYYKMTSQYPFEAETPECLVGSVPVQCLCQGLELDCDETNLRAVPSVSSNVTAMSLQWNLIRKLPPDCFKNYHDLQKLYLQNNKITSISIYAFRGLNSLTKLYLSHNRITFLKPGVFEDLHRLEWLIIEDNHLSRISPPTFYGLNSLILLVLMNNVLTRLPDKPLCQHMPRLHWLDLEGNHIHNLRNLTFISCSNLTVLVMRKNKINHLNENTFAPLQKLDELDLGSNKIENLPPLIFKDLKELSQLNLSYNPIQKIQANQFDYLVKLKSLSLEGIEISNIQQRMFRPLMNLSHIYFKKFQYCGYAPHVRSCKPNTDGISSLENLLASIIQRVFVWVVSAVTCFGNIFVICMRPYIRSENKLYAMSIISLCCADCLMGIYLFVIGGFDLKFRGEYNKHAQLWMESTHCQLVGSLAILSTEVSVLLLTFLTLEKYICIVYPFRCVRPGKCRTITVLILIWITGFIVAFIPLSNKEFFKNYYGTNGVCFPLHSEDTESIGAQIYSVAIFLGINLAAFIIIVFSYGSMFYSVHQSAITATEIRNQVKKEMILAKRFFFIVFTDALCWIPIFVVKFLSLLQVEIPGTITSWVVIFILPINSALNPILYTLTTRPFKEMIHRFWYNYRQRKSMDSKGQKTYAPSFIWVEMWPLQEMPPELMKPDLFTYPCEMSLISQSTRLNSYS

[18] = biological target: T3, Relaxin receptor 1 (Rattus norvegicus, UniProt Q6R6I6); assay: Agonist activity at rat RXFP1 expressed in T-Rex-CHO-K1 cells assessed as stimulation of cAMP production incubated for 60 mins by HTRF assay; assay type: functional, cell-based
T3 sequence (Q6R6I6 whole entry): T1 sequence (whole entry)

[19] = Oral bioavailability in Han Wistar rat at 1.52 micromol/kg by LC-MS/MS analysis; assay type: ADME, organism-based; conditions: in vivo, 1.52 µmol/kg
[20] = biological target: T4, Relaxin receptor 1 (Homo sapiens, UniProt Q9HBX9); assay: Agonist activity at human RXFP1 expressed in T-Rex-CHO-K1 cells assessed as stimulation of cAMP production incubated for 45 mins by HTRF assay; assay type: functional, cell-based
T4 sequence (Q9HBX9 whole entry): T2 sequence (whole entry)

[21] = Metabolic stability in Han Wistar rat hepatocytes assessed as unbound intrinsic clearance measured per 10^6 cells at 1 uM after 120 mins by LC-MS/MS analysis; assay type: ADME, cell-based, Hepatocyte; conditions: 2 h
[22] = Clearance in Han Wistar rat at 0.76 micromol/kg, iv by LC-MS/MS analysis; assay type: ADME, organism-based; conditions: in vivo, dose 0.76 µmol/kg
[23] = biological target: T1, Relaxin receptor 1 (Rattus norvegicus); assay: Agonist activity at rat RXFP1 expressed in T-Rex-CHO-K1 cells assessed as stimulation of cAMP production by measuring maximal efficacy incubated for 60 mins by HTRF assay relative to control; assay type: functional, cell-based; conditions: filed as agonist
[24] = Volume of distribution at steady state in Han Wistar rat at 0.76 micromol/kg, iv by LC-MS/MS analysis; assay type: ADME, organism-based; conditions: in vivo, dose 0.76 µmol/kg, read-out: Vdss
[25] = Half-life in Han Wistar rat at 0.76 micromol/kg, iv by LC-MS/MS analysis; assay type: ADME, organism-based; conditions: in vivo, dose 0.76 µmol/kg

bioavailability [1]: 40%
CL free [2]: 37 10^3uL/min/mg
Vd [3]: 7.7 L/kg
hepatocyte CLint at 1 µM [4]: 22 µL/min/1e6 cells
clearance [5]: 30 mL/min/kg
Activity [6]: inactive
fraction unbound at 4 h, 1 µM [7]: 4e-05
logD at 3 h [8]: > 4
microsomal CLint at 1 µM [9]: 55 µL/min/mg
CL free [10]: 5.4 µL/min
fraction unbound at 4 h, 1 µM [11]: 2e-05
half-life [12]: 4.3 h
CL free [13]: 3.07 10^3uL/min
solubility kinetic at 24 h [14]: 1 µM (≈ 0.507 µg/mL)
fraction unbound at 18 h, 5 µM [15]: < 0.0002
hepatocyte CLint at 1 µM [16]: 12.6 µL/min/1e6 cells
Structure (SMILES): CC(C)Oc1ccccc1C(=O)Nc1ccccc1C(=O)Nc1cccc(S(=O)(=O)C(F)(F)F)c1

Activity [6]: inactive
Emax [17]: 92%
Structure (SMILES): COc1cc(F)c(-c2ccc(C(=O)O)cc2)cc1C(=O)N[C@H]1[C@@H](C(=O)Nc2cccc(S(=O)(=O)C(F)(F)F)c2)[C@@H]2C=C[C@H]1C2 (racemic)

hepatocyte CLint at 1 µM [4]: 23 µL/min/1e6 cells
EC50 [18]: 10 µM
logD at 3 h [8]: 3.5
bioavailability [19]: 2.6%
Emax [17]: 102%
EC50 [20]: 0.0398 µM
CL free [21]: 397 µL/min
CL free [13]: 259 µL/min
clearance [22]: 76 mL/min/kg
Emax [23]: 43%
fraction unbound at 18 h, 5 µM [15]: 0.011
Vd [24]: 1.7 L/kg
half-life [25]: 1.2 h
hepatocyte CLint at 1 µM [16]: 15 µL/min/1e6 cells
Structure (SMILES): COc1cc(F)c(O[C@H]2CC[C@@H](C(=O)O)CC2)cc1C(=O)N[C@@H]1[C@H]2CC[C@H](C2)[C@@H]1C(=O)Nc1cccc(S(=O)(=O)C(F)(F)F)c1
